This note sets out measurements from patent publication US7812045B2, “Antifungal triazole derivatives” (Daewoong Pharmaceutical Co., Ltd., priority 2005, dated 2010).

Values after ≈ are worked out from the molar mass of the structure shown.

The test system of test [1] is Aspergillus fumigatus ATCC MYA-1163. Nature of the test: In vitro assay for antifungal activity (MIC90). It is filed as cell-based. As to conditions: RPMI 1640, growth read after 48 hours, duplicate; for MIC90: read-out: MIC90 (concentration at which 90% of the fungi were inhibited compared to the negative control). As for the experimental part: (§1) Fungal strains to be tested were inoculated onto Sabouraud dextrose agar, YM agar, and potato dextrose agar and cultured at 35° C. for two to three days. Individual single colonies of the yeast fungi selected out of the cultured strains were suspended in 5 ml of 0.85% sterile saline, followed by correction to adjust the absorbance thereof at 530 nm to 0.108. The suspensions were diluted serially by 1:50 and then 1:20 in RPMI 1640 media to prepare liquid inocula ranging in cell count from 1.0×10^3 to 5.0×10^3 CFU/ml. As for filamentous fungi, their spores were suspended in 0.85% sterile saline and the suspensions were corrected with sterile saline to show optical transmittance at 530 nm of 80 to 82%. A dilution of 1:50 was made with RPMI 1640 media to prepare liquid inocula having cell counts from […] to 5×10^4 CFU/ml.
(§2) Antifungal samples were prepared by diluting the compounds of the present inventions in RPMI 1640 media to serial concentrations from 0.0625 to 32 μg/ml. As a vehicle, DMSO was contained in a final concentration of 1% (V/V) in the antifungal samples. 0.1 ml of each of the dilutions in series was added to equal volume of each of the fungal inocula.

The next test concerns Candida krusei ATCC 6258. Nature of the test: In vitro assay for antifungal activity (MIC90). Format: cell-based. As to conditions: duplicate; for MIC90 (concentration at which 90% of the fungi were inhibited compared to the negative control): RPMI 1640, growth read after 24 hours; for MIC90: Pichia kudriavzevii, ATCC6258, RPMI 1640, growth read after 24 hours, read-out: MIC90 (concentration at which 90% of the fungi were inhibited compared to the negative control). As for the experimental part:
as §1, §2

Test [2] relates to Candida albicans ATCC 32033. Nature of the test: In vitro assay for antifungal activity (MIC90). Format: cell-based. As to conditions: duplicate; for MIC90 (concentration at which 90% of the fungi were inhibited compared to the negative control): RPMI 1640, growth read after 24 hours; for MIC90: ATCC32033, RPMI 1640, growth read after 24 hours, read-out: MIC90 (concentration at which 90% of the fungi were inhibited compared to the negative control). The protocol: as §1, §2

Test [3] deals with Aspergillus flavus ATCC MYA-1004. Nature of the test: In vitro assay for antifungal activity (MIC90). Format: cell-based. Conditions: RPMI 1640, growth read after 48 hours, duplicate; for MIC90: read-out: MIC90 (concentration at which 90% of the fungi were inhibited compared to the negative control). The protocol:
as §1, §2

Test [4] deals with Candida glabrata ATCC 34138. Nature of the test: In vitro assay for antifungal activity (MIC90). It is filed as cell-based. Conditions: duplicate; for MIC90 (concentration at which 90% of the fungi were inhibited compared to the negative control): RPMI 1640, growth read after 24 hours; for MIC90: Nakaseomyces glabratus, ATCC34138, RPMI 1640, growth read after 24 hours, read-out: MIC90 (concentration at which 90% of the fungi were inhibited compared to the negative control). The protocol: as §1, §2

In test [5] the test system is Cryptococcus neoformans ATCC 4065. Nature of the test: In vitro assay for antifungal activity (MIC90). Format: cell-based. As to conditions: for MIC90 (concentration at which 90% of the fungi were inhibited compared to the negative control): RPMI 1640, duplicate; for MIC90: ATCC4065, RPMI 1640, duplicate, read-out: MIC90 (concentration at which 90% of the fungi were inhibited compared to the negative control). As for the experimental part:
as §1, §2

Test [6] deals with Aspergillus terreus ATCC 28301. Nature of the test: In vitro assay for antifungal activity (MIC90). As to conditions: duplicate; for MIC90 (concentration at which 90% of the fungi were inhibited compared to the negative control): RPMI 1640, growth read after 48 hours; for MIC90: ATCC28301, RPMI 1640, growth read after 48 hours, read-out: MIC90 (concentration at which 90% of the fungi were inhibited compared to the negative control). It is filed as cell-based. As for the experimental part:
as §1, §2

Test [7] has as its system Aspergillus niger ATCC 9142. Nature of the test: In vitro assay for antifungal activity (MIC90). It is filed as cell-based. Conditions: duplicate; for MIC90 (concentration at which 90% of the fungi were inhibited compared to the negative control): RPMI 1640, growth read after 48 hours; for MIC90: ATCC9142, RPMI 1640, growth read after 48 hours, read-out: MIC90 (concentration at which 90% of the fungi were inhibited compared to the negative control). As for the experimental part:
as §1, §2

Test [8] relates to Candida albicans (ATCC 36082). Nature of the test: In vivo assay for antifungal activity (survival of infected mice). As to conditions: ICR mice infected i.v. with Candida albicans ATCC 36082; 20 mg/kg orally once a day for seven days (day 0 to day 6); groups of 10. As for the experimental part:
Candida albicans (ATCC 36082) was grown in YM broth on a rotary shaker (200 rpm, 26° C.) for about 12 hours to a concentration of 2.5×10^7 CFU/ml and used to infect ICR mice at a dose of 0.2 ml/head via caudal veins. Suspensions or solutions of the azole compounds in a 25% beta-hydroxypropyl methylcellulose base were orally administered at a dose of 20 mg/kg to respective infected ICR mice in groups of 10, the condition and body weights of the mice were monitored, and autopsies were finally conducted. For a negative control, the vehicle alone was used while fluconazole was administered to a positive control. The mice were inoculated once with the fungal preparation on the day of commencement of the administration. The test materials of interest and the positive control material were orally administered to the inoculated mice once a day for seven days from day 0 to day 6, with the first oral administration made five hours after the fungal inoculation (day 0). The periods of time for which the infected mice lived were counted.
The number of mice which survived the fungal infection for 21 days following the inoculation was represented as % survival for each test group, and the results are given in Table 11, below. All members of the negative control were dead 8 days after the fungal infection, while all of the groups administered with Compound 50 were dead 18 days after the fungal infection.

Consider `C[C@@H](n1cc2cc(F)ccc2n1)[C@](O)(Cn1cncn1)c1ccc(F)cc1F` [Example 56], for which the “MIC90 (concentration at which 90% of the fungi were inhibited compared to the negative control)” value in test [1] was 0.5 µg/mL; in the test with Candida krusei ATCC 6258, 1 µg/mL; in test [2] it was “≦0.015 μg/ml”; in [3] it was 2 µg/mL; in test [4] it was 2 µg/mL; in test [5], 0.125 µg/mL. Further, the “MIC90 (concentration at which 90% of the fungi were inhibited compared to the negative control)” value in [6] and in [7] was 2 µg/mL in each case.

As to `Cc1c2cc(F)ccc2nn1[C@H](C)[C@](O)(Cn1cncn1)c1ccc(F)cc1F` [Example 72], the “MIC90 (concentration at which 90% of the fungi were inhibited compared to the negative control)” value stood at 4 µg/mL in test [1]; 8 µg/mL in the test with Candida krusei ATCC 6258; 0.031 µg/mL in test [2]; 8 µg/mL in [3]; 8 µg/mL in test [4]; 1 µg/mL in test [5]. Moreover, the figures for the “MIC90 (concentration at which 90% of the fungi were inhibited compared to the negative control)” value in test [6] and in test [7] were 4 µg/mL and 8 µg/mL, respectively.

As for `CCc1c2cc(F)ccc2nn1[C@H](C)[C@](O)(Cn1cncn1)c1ccc(F)cc1F` [Example 100], the “MIC90 (concentration at which 90% of the fungi were inhibited compared to the negative control)” value was 16 µg/mL in test [1]; 4 µg/mL against Candida krusei ATCC 6258; “≦0.015 μg/ml” in test [2]; 16 µg/mL in test [3]; 8 µg/mL in test [4]; 0.25 µg/mL in test [5]. Besides, the figures for the “MIC90 (concentration at which 90% of the fungi were inhibited compared to the negative control)” value in [6] and in test [7] were 16 µg/mL and more than 16 µg/mL, respectively.

Regarding `Cc1nn([C@H](C)[C@](O)(Cn2cncn2)c2ccc(F)cc2F)c2ccc([N+](=O)[O-])cc12` [Example 106, (2R,3R)-2-(2,4-Difluorophenyl)-3-(3-methyl-5-nitro-1H-indazol-1-yl)-1-(1H-1,2,4-triazol-1-yl)butan-2-ol], the MIC90 in test [1] turned out to be 8 µg/mL (≈ 18.7 µM); in the test on Candida krusei ATCC 6258 it was 4 µg/mL (≈ 9.34 µM); in test [2], 0.031 µg/mL (≈ 0.0724 µM); in test [3], 8 µg/mL (≈ 18.7 µM); in [4], 8 µg/mL (≈ 18.7 µM); in [5] it was 0.5 µg/mL (≈ 1.17 µM). Moreover, the MIC90 in test [6] came out at 4 µg/mL (≈ 9.34 µM); in test [7] it was 16 µg/mL (≈ 37.3 µM).

Turning to `C[C@@H](n1ncc2cc(NCc3ccc(F)cc3)ccc21)[C@](O)(Cn1cncn1)c1ccc(F)cc1F` [Example 244], the “MIC90 (concentration at which 90% of the fungi were inhibited compared to the negative control)” value in test [1] was 0.5 µg/mL; with Candida krusei ATCC 6258, 0.5 µg/mL; in [2] it was “≦0.015 μg/ml”; in test [3], 0.5 µg/mL; in test [4], 8 µg/mL; in [5] it was 0.25 µg/mL. The “MIC90 (concentration at which 90% of the fungi were inhibited compared to the negative control)” value in test [6] turned out to be 1 µg/mL; in test [7], 2 µg/mL.

With `C[C@@H](n1ncc2cc(NCc3ccc(OC(F)(F)F)cc3)ccc21)[C@](O)(Cn1cncn1)c1ccc(F)cc1F` [Example 247], the “MIC90 (concentration at which 90% of the fungi were inhibited compared to the negative control)” value in test [1] was 1 µg/mL; against Candida krusei ATCC 6258, 0.5 µg/mL; in test [2], “≦0.015 μg/ml”; in test [3] it was 1 µg/mL; in [4] it was 8 µg/mL; in test [5], 0.25 µg/mL. Further, the results for the “MIC90 (concentration at which 90% of the fungi were inhibited compared to the negative control)” value in test [6] and in [7] were 2 µg/mL and 4 µg/mL, respectively.

In the case of `C[C@@H](n1ncc2cc(NCc3ccc(F)cc3F)ccc21)[C@](O)(Cn1cncn1)c1ccc(F)cc1F` [Example 250], the “MIC90 (concentration at which 90% of the fungi were inhibited compared to the negative control)” value in test [1] is 1 µg/mL; against Candida krusei ATCC 6258 it was 0.5 µg/mL; in [2], “≦0.015 μg/ml”; in test [3], 0.5 µg/mL; in test [4], 8 µg/mL; in test [5] it was 0.25 µg/mL. The “MIC90 (concentration at which 90% of the fungi were inhibited compared to the negative control)” value in test [6] worked out at 2 µg/mL; in test [7] it was 4 µg/mL.

In the case of `C[C@@H](n1ncc2cc(NCC3CCCCC3)ccc21)[C@](O)(Cn1cncn1)c1ccc(F)cc1F` [Example 309], the “MIC90 (concentration at which 90% of the fungi were inhibited compared to the negative control)” value in test [1] was 8 µg/mL; against Candida krusei ATCC 6258 it was 1 µg/mL; in test [2], “≦0.015 μg/ml”; in test [3] it was 2 µg/mL; in test [4], 8 µg/mL; in test [5], 0.5 µg/mL. In addition, the results for the “MIC90 (concentration at which 90% of the fungi were inhibited compared to the negative control)” value in test [6] and in [7] were 4 µg/mL and 16 µg/mL, respectively.

Consider `OC(Cn1cncn1)(Cn1cncn1)c1ccc(F)cc1F` [Fluconazole, fluconazole, reference compound], for which the “% Survival on Day 21” value in test [8] is listed as 20%. Also, the MIC90 was more than 128 µg/mL in test [1]; more than 8 µg/mL in the test with Candida krusei ATCC 6258; 1 µg/mL (≈ 3.27 µM) in [2]; more than 128 µg/mL in test [3]; more than 32 µg/mL in [4]; 8 µg/mL (≈ 26.1 µM) in test [5]. The MIC90 in [6] and in test [7] was more than 128 µg/mL each time.
